{"source": "patent US7862815B2", "about": "“Methods for inhibiting angiogenesis with inhibitors of proadrenomedullin N-terminal 20 peptide (PAMP)” (The United States of America as represented by the …, priority 2002, dated 2011)", "key": {"[1]": {"test_system": "human microvascular endothelial cells", "assay": "Proliferation assay (MTT)", "assay_type": "cell-based", "conditions": "three days; for endothelial cell proliferation over the control: 10^−8 M, serum-free medium, p<0.001", "procedure": "The same microvascular endothelial cells were seeded in 96-well plates at a density of 2.0×10^5 cells per well in serum-free medium containing different concentrations of the test peptides. After three days in culture, the number of viable cells per well was estimated by the MTT assay as reported (Iwai et al., Lung Cancer 23, 209-222, 1999). Results are represented as percentage growth over the untreated control."}, "nude mice": {"test_system": "nude mice", "assay": "Directed in vivo Angiogenesis Assay (DIVAA), Example 1", "conditions": "for FITC-dextran fluorescence of implants (angiogenesis): mean ± standard deviation of five implants", "procedure": "Silicone tubes (0.15 mm outside diameter, New Age Industries, Southampton, Pa.) are cut to 1 cm in length, and one end of each tube is closed with liquid silicone and dried for 24 hours, then autoclaved. A dilution of test substances is prepared in matrigel in sterile cold Eppendorf tubes. Tubes are filled with a Hamilton syringe. Nude mice are anesthetized, and a pocket is made in the dorsal skin of each animal. The tubes are then implanted with the open end first, and the wounds are then sealed.\nAfter nine to eleven days, the tail veins are injected with FITC-dextran to visualize the blood vessels, and the dye is allowed to distribute throughout the vasculature for about 20 minutes. Mice are then euthanized with CO2 and the skin pockets are removed.\nSkin is then dissected, keeping the vessels near the mouth of the tube. The matrigel is then displaced from the tube, incubated at 37° C. in the presence of dispase, then vortexed, centrifuged, and matrigel aliquots are transferred into 96-well plates for fluorescent emission. Fluorescence is read in a fluorimeter.\nThis example provides a description of use of the Directed in vivo Angiogenesis Assay (DIVAA; see Martinez et al., J. Natl. Cancer Inst. 2002; 94:1226-1237) to measure the angiogenic potential of PAMP in comparison to known angiogenesis factors.\nImplants were prepared as follows: Silicone tubes (0.15 mm outside diameter, New Age Industries, Southampton, Pa.) were cut to 1 cm in length. One end of each tube was closed with liquid silicone and dried for 24 hours to allow fumes to diffuse out. Tubes were then autoclaved.\nA dilution of test substances was prepared in matrigel in sterile cold Eppendorf tubes. A stock of 25× was prepared to avoid diluting the matrigel too much. Tubes were filled with a Hamilton syringe. All the material was kept sterile and cold. Each tube required 18-20 μl. The matrigel was allowed to solidify at 37° C. for at least 30 minutes.\nNude mice were anesthetized with Ketamine and Xylazine (1:4 ratio), 50 μl per mouse, […]. A pocket was made in the dorsal skin of each animal with scissors. The tubes were implanted with the open end first. The wounds were then sealed with surgical clips. Mice were kept warm until they recovered consciousness. Mice were then maintained for nine to eleven days.\nMice were placed under a heating lamp to dilate their tail veins. Tail veins were injected with 25 mg/ml FITC-dextran (Sigma), 100 μl/mouse. After about 20 minutes, the dye had been distributed. Mice were then euthanized with CO2 and the skin pockets were removed and kept in a PBS-wet cloth.\nSkin was then dissected out, keeping the vessels near the mouth of the tube. The tube was placed in an Eppendorf tube containing 300 μdispase (Collaborative Biomedical Products). Then the matrigel was displaced from the tube; these were frozen until they were needed later.\nMatrigels were thawed and incubated at 37° C. for one hour, then vortexed, centrifuged, and 100 μl was transferred into a 96-well plate for fluorescent emission (black sides). Excitation for FITC was 485 nm. Emission was 535 nm. Fluorescence was read in a fluorometer."}, "athymic nude mice": {"test_system": "athymic nude mice", "assay": "DIVAA with angioreactors, Example 2 (peptides in matrigel)", "assay_type": "in vivo", "conditions": "for concentration range at which angiogenesis begins: equimolar comparison, FIG. 4G", "procedure": "Analysis and quantitation of angiogenesis was done using DIVAA as previously described (Martinez et al., J. Natl. Cancer Inst., 21; 94(16):1226-37, 2002; Guedez et al., Am. J. Pathol. 162, 1431-1439, 2003). Briefly, 10 mm long surgical-grade silicone tubes with only one end open (angioreactors) were filled with 20 μl of matrigel alone or mixed with AM, bFGF, VEGF, PAMP, and/or PAMP(12-20) at the indicated concentrations. Human lung cancer cell lines (see below) were also premixed with matrigel alone or in combination with PAMP(12-20) at 10,000 cells per angioreactor. After the matrigel solidified, the angioreactors were implanted into the dorsal flanks of anesthetized athymic nude mice (NCI colony). After eleven days, the mice were injected intravenously with 25 mg/ml FITC-dextran (100 μl/mouse, Sigma) 20 minutes before removing the angioreactors. Photographs of the implants were taken for visual examination of angiogenic response. Quantitation of neovascularization in the angioreactors was determined as the amount of fluorescence trapped in the implants and was measured in a HP Spectrophotometer (Perkin Elmer).\nTo further characterize this observation, an […] assay was employed that allows for more precise quantitation of angiogenic properties: the directed […] angiogenesis assay or DIVAA (Martinez et al., J. Natl. Cancer Inst., 21; 94(16): 1226-37, 2002; Guédez et al., Am. J. Pathol. 162, 1431-1439, 2003). The assay involves implanting small silicone capsules carrying the test substances under the skin of nude mice. After eleven days, the mice are injected with a specific amount of FITC-dextran, and the volume of blood circulating through the implant is quantified by measuring the fluorescence in the capsule. In addition, the new blood vessels growing into the silicone tube can be seen directly by transparency (FIG. 4A-F). […] The extent of the angiogenic response can be seen clearly when this response is compared with the negative control (FIG. 4A). The angiogenic response elicited by PAMP was dose-dependent (FIG. 4C-G). When compared to AM and VEGF responses at equimolar concentrations, a clear difference was observed."}, "[2]": {"test_system": "aortic rings of 13 day-old chicken embryos", "assay": "Chick embryo aortic arch assay", "assay_type": "cell-based", "conditions": "for sprouting of new vessels versus control: 1 nM peptide", "procedure": "The chick embryo aortic arch assay is an ex vivo angiogenesis assay that was performed as previously described (Isaacs, et al., J. Biol. Chem., 16; 277(33):29936-44, 2002; Auerbach et al., Clin. Chem. 49, 32-40, 2003). Briefly, aortic rings of approximately 0.8 mm in length were prepared from the five aortic arches of 13 day-old chicken embryos (Truslow Farms) and the soft connective tissue of the adventitia layer was carefully removed with tweezers. Each aortic ring was placed in the center of a well in a 48-well plate and covered with 10 μl matrigel (BD Biosciences). After the matrigel solidified, 300 μl of growth factor-free human endothelial-SFM basal growth medium (Invitrogen) containing the proper concentration of the test substances were added to each well. The plates were kept in a humid incubator at 37° C. in 5% CO2 for 24-36 hours. Microvessels sprouting from each aortic ring were photographed in an inverted microscope and the area covered by the newly formed capillaries was estimated by image analysis."}}}
{"substance": "Adrenomedullin [AM]", "values": [{"measurement": "endothelial cell proliferation over the control", "setting": "[1]", "result": "significantly increase proliferation"}, {"measurement": "FITC-dextran fluorescence of implants (angiogenesis)", "setting": "nude mice; 10 pM peptide in matrigel", "result": "1033.2 ± 343 arbitrary fluorescence units"}, {"measurement": "FITC-dextran fluorescence of implants (angiogenesis)", "setting": "nude mice; 1 nM peptide in matrigel", "result": "9590 ± 3164 arbitrary fluorescence units"}, {"measurement": "FITC-dextran fluorescence of implants (angiogenesis)", "setting": "nude mice; 100 nM peptide in matrigel", "result": "13490 ± 2731 arbitrary fluorescence units"}, {"measurement": "FITC-dextran fluorescence of implants (angiogenesis)", "setting": "nude mice; 1 fM peptide in matrigel", "result": "496 ± 275 arbitrary fluorescence units"}, {"measurement": "FITC-dextran fluorescence of implants (angiogenesis)", "setting": "nude mice; 100 fM peptide in matrigel", "result": "787 ± 130 arbitrary fluorescence units"}, {"measurement": "concentration range at which angiogenesis begins", "setting": "athymic nude mice", "result": "nanomolar concentrations"}, {"measurement": "sprouting of new vessels versus control", "setting": "[2]", "result": "do not promote any significant proliferation over the control"}]}
{"substance": "proadrenomedullin N-terminal 20 peptide (ARLDVASEFRKKWNKWALSR; listed as Homo sapiens) [PAMP, 20 amino-acid molecule originating from the post-translational processing of pre-proadrenomedullin; synthetic human, purchased from Bachem]", "values": [{"measurement": "endothelial cell growth", "setting": "[1]; at the concentrations tested", "result": "did not significantly modify cell growth"}, {"measurement": "FITC-dextran fluorescence of implants (angiogenesis)", "setting": "nude mice; 10 pM peptide in matrigel", "result": "7611.2 ± 3747 arbitrary fluorescence units"}, {"measurement": "FITC-dextran fluorescence of implants (angiogenesis)", "setting": "nude mice; 1 nM peptide in matrigel", "result": "10122.2 ± 3970 arbitrary fluorescence units"}, {"measurement": "FITC-dextran fluorescence of implants (angiogenesis)", "setting": "nude mice; 100 nM peptide in matrigel", "result": "22283.6 ± 6746 arbitrary fluorescence units"}, {"measurement": "FITC-dextran fluorescence of implants (angiogenesis)", "setting": "nude mice; 1 fM peptide in matrigel", "result": "6837.6 ± 1982 arbitrary fluorescence units"}, {"measurement": "FITC-dextran fluorescence of implants (angiogenesis)", "setting": "nude mice; 100 fM peptide in matrigel", "result": "7044 ± 1727 arbitrary fluorescence units"}, {"measurement": "angiogenic potency compared with VEGF or AM", "setting": "nude mice; Table 2, FIG. 1, FIG. 2", "result": "significantly more potent"}, {"measurement": "angiogenic potency relative to VEGF and bFGF", "setting": "nude mice; on a molar basis, based on embryonic chick aortic ring assay and DIVAA", "result": "roughly one million"}, {"measurement": "dose dependence of angiogenic response", "setting": "athymic nude mice; FIG. 4C-G", "result": "dose-dependent"}, {"measurement": "concentration range at which angiogenesis begins", "setting": "athymic nude mice", "result": "femtomolar range"}, {"measurement": "concentrations eliciting an angiogenic response", "setting": "athymic nude mice; implants 11 days under the skin of nude mice", "result": "≥ 1", "unit": "femtomols/L"}, {"measurement": "sprouting of new vessels versus control", "setting": "[2]", "result": "larger than the control"}, {"measurement": "concentrations inducing increase of sprouting blood vessels over untreated controls", "setting": "[2]; chick embryo aortic rings in matrigel, 24-36 hours", "result": "≥ 1", "unit": "nM"}]}
{"substance": "vascular endothelial growth factor [VEGF]", "values": [{"measurement": "endothelial cell proliferation over the control", "setting": "[1]", "result": "significantly increase proliferation"}, {"measurement": "FITC-dextran fluorescence of implants (angiogenesis)", "setting": "nude mice; 10 pM peptide in matrigel", "result": "863.4 ± 437 arbitrary fluorescence units"}, {"measurement": "FITC-dextran fluorescence of implants (angiogenesis)", "setting": "nude mice; 1 nM peptide in matrigel", "result": "8435 ± 3931 arbitrary fluorescence units"}, {"measurement": "FITC-dextran fluorescence of implants (angiogenesis)", "setting": "nude mice; 100 nM peptide in matrigel", "result": "11206 ± 3735 arbitrary fluorescence units"}, {"measurement": "FITC-dextran fluorescence of implants (angiogenesis)", "setting": "nude mice; 1 fM peptide in matrigel", "result": "1563.2 ± 1643 arbitrary fluorescence units"}, {"measurement": "FITC-dextran fluorescence of implants (angiogenesis)", "setting": "nude mice; 100 fM peptide in matrigel", "result": "571 ± 785 arbitrary fluorescence units"}, {"measurement": "concentration range at which angiogenesis begins", "setting": "athymic nude mice", "result": "nanomolar concentrations"}, {"measurement": "sprouting of new vessels versus control", "setting": "[2]", "result": "do not promote any significant proliferation over the control"}]}
